We go through 9 compounds from patent US20160122320A1, “USEFUL COMBINATIONS OF MONOBACTAM ANTIBIOTICS WITH BETA-LACTAMASE INHIBITORS” (Basilea Pharmaceutica AG, priority 2005, published 2016).

Molecules are shown by their SMILES. Where a name gives a salt, the structure may show the parent alone.

Test in all cases: MIC, NCCLS broth microdilution
Type in all cases: cell-based

For one assay, the system named is Acinetobacter sp. J2. The conditions noted are these: for MIC of antibiotic at fixed inhibitor concentration (4 mg/L): Acinetobacter sp. J2, MIC of antibiotic compound 1 with the labelled bridged monobactam of formula II and clavulanate, 4 mg/L each; for MIC of antibiotic / MIC of antibiotic at fixed inhibitor concentration of 4 mg/L: Acinetobacter baumannii J2; for MIC of antibiotic: antibiotic alone, no inhibitor.

Assay [1] concerns Pseudomonas aeruginosa MK1184. The conditions noted are these: for MIC of antibiotic at fixed inhibitor concentration (4 mg/L): MIC of antibiotic compound 1 with the labelled bridged monobactam of formula II and clavulanate, 4 mg/L each; for MIC of antibiotic: antibiotic alone, no inhibitor.
Assay [2] deals with Pseudomonas aeruginosa 1973E. The note with it: for MIC of antibiotic at fixed inhibitor concentration (4 mg/L): MIC of antibiotic compound 1 with the labelled bridged monobactam of formula II and clavulanate, 4 mg/L each; for MIC of antibiotic: antibiotic alone, no inhibitor. In a few lines:
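Compounds were serially diluted per NCCLS M7-A5 (final DMSO no more than 1%) and incubated with bacteria overnight at 30° C. or 37° C. Visible growth was then judged by eye. For combinations, partner compounds sat in every well at a constant 4 μg/mL each.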

Another assay relates to Enterobacter cloacae P99. The conditions noted are these: for MIC of antibiotic at fixed inhibitor concentration (4 mg/L): MIC of antibiotic compound 1 with the labelled bridged monobactam of formula II and clavulanate, 4 mg/L each; for MIC of antibiotic: antibiotic alone, no inhibitor.
Assay [3] deals with Klebsiella pneumoniae CF104. The note with it: for MIC of antibiotic at fixed inhibitor concentration (4 mg/L): MIC of antibiotic compound 1 with the labelled bridged monobactam of formula II and clavulanate, 4 mg/L each; for MIC of antibiotic: antibiotic alone, no inhibitor.
The subject of a further assay is Serratia marcescens S6. The note with it: for MIC of antibiotic at fixed inhibitor concentration (4 mg/L): MIC of antibiotic compound 1 with the labelled bridged monobactam of formula II and clavulanate, 4 mg/L each; for MIC of antibiotic: antibiotic alone, no inhibitor.
Assay [4] deals with Stenotrophomonas malthophilia 1AC736. The conditions noted are these: for MIC of antibiotic at fixed inhibitor concentration (4 mg/L): Stenotrophomonas malthophilia 1AC736, MIC of antibiotic compound 1 with the labelled bridged monobactam of formula II and clavulanate, 4 mg/L each; for MIC of antibiotic / MIC of antibiotic at fixed inhibitor concentration of 4 mg/L: Stenotrophomonas maltophilia 1AC736; for MIC of antibiotic: antibiotic alone, no inhibitor.
Description: Antimicrobial activity of the compounds and of their combinations was determined against a selection of organisms according to the standard procedures described by the National Committee for Clinical Laboratory Standards (National Committee for Clinical Laboratory. Standards (2000). Methods for Dilution Antimicrobial Susceptibility Tests for Bacteria That Grow Aerobically-Fifth Edition: Approved Standard M7-A5. NCCLS, Wayne, Pa., USA).
In all cases the final concentration of DMSO incubated with the bacteria is less than or equal to 1%. […] Plates were incubated overnight at an appropriate temperature (30° C. or 37° C.) and optical densities assessed by eye. The MIC value is defined as the lowest compound concentration completely inhibiting visible growth of the test organism. When combinations between compounds of formula I with compounds of formula II and are evaluated the compounds of formula I are tested in dilution series as described above while the compounds of formula II and III-XIII were present in all wells at a constant concentration of 4 μg/mL each.

For `NC(=O)c1cc[n+](CC(=O)N2CC[C@@H]3[C@H]2C(=O)N3S(=O)(=O)[O-])cc1` [Compound 105, (1S,5R)-2-[2-(4-carbamoylpyridinium)acetyl]-7-oxo-2,6-diazabicyclo[3.2.0]heptane-6-sulfonate, inner salt], the “MIC of antibiotic at fixed inhibitor concentration (4 mg/L)” value in the assay with Acinetobacter sp. J2 amounted to 8 µg/mL; in assay [1], 16 µg/mL; in assay [2], 8 µg/mL; with Enterobacter cloacae P99, 32 µg/mL; in assay [3] it was 0.5 µg/mL; with Serratia marcescens S6 it was 0.125 µg/mL. For the same compound, the “MIC of antibiotic at fixed inhibitor concentration (4 mg/L)” value in assay [4] amounted to 0.125 µg/mL.
For the compound `NC(=O)c1ccc[n+](CC(=O)N2CC[C@@H]3[C@H]2C(=O)N3S(=O)(=O)[O-])c1` [Compound 102, (1S,5R)-2-[2-β-carbamoylpyridinium)acetyl]-7-oxo-2,6-diazabicyclo[3.2.0]heptane-6-sulfonate, inner salt], the “MIC of antibiotic at fixed inhibitor concentration (4 mg/L)” value is 4 µg/mL in the assay on Acinetobacter sp. J2; 4 µg/mL in assay [1]; 2 µg/mL in assay [2]; 4 µg/mL in the assay on Enterobacter cloacae P99; 1 µg/mL in assay [3]; 0.25 µg/mL in the assay on Serratia marcescens S6. Further, the “MIC of antibiotic at fixed inhibitor concentration (4 mg/L)” value in assay [4] was 0.125 µg/mL.
With `NC(=O)CNC(=O)c1ccc(NC(=O)N2CC[C@@H]3[C@H]2C(=O)N3S(=O)(=O)[O-])cc1.[Na+]` [Compound 312, Sodium(1S,5R)-2-(N-{4-[N-(carbamoylmethyl)carbamoyl]phenyl}carbamoyl)-7-oxo-2,6-diazabicyclo[3.2.0]heptane-6-sulfonate], the “MIC of antibiotic at fixed inhibitor concentration (4 mg/L)” value with Acinetobacter sp. J2 was greater than 32 µg/mL; in assay [1], greater than 32 µg/mL; in assay [2] it was 8 µg/mL; in the assay on Enterobacter cloacae P99, 8 µg/mL; in assay [3], 4 µg/mL; with Serratia marcescens S6, 0.5 µg/mL. Also, the “MIC of antibiotic at fixed inhibitor concentration (4 mg/L)” value in assay [4] worked out at 0.125 µg/mL.
On to `COc1ccc(NC(=O)N2CC[C@@H]3[C@H]2C(=O)N3S(=O)(=O)[O-])cc1.[Na+]` [Compound 304], for which the “MIC of antibiotic at fixed inhibitor concentration (4 mg/L)” value is greater than 32 µg/mL in the assay with Acinetobacter sp. J2; greater than 32 µg/mL in assay [1]; 4 µg/mL in assay [2]; 32 µg/mL in the assay with Enterobacter cloacae P99; 1 µg/mL in assay [3]; 0.25 µg/mL with Serratia marcescens S6. For the same compound, the “MIC of antibiotic at fixed inhibitor concentration (4 mg/L)” value in assay [4] is 0.125 µg/mL.
Consider `Nc1nc(C(=NOCc2cc(=O)c(O)cn2O)C(=O)NC2CN(S(=O)(=O)O)C2=O)cs1` (stereo not drawn) [Compound 9], for which the MIC of antibiotic with Acinetobacter sp. J2 was greater than 32 µg/mL; in assay [1], greater than 32 µg/mL; in assay [2], 8 µg/mL; with Enterobacter cloacae P99 it was greater than 32 µg/mL; in assay [3], greater than 32 µg/mL; in the assay with Serratia marcescens S6, 16 µg/mL. For the same compound, the MIC of antibiotic in assay [4] stood at 0.5 µg/mL. The “MIC of antibiotic at fixed inhibitor concentration of 4 mg/L” value is greater than 32 µg/mL in the assay with Acinetobacter sp. J2 (with 102 and clavulanate); 4 µg/mL in assay [1] (with 102 and clavulanate); 8 µg/mL in assay [2] (with 102 and clavulanate); 32 µg/mL in the assay on Enterobacter cloacae P99 (with 102 and clavulanate); 0.5 µg/mL in assay [3] (with 102 and clavulanate); 1 µg/mL in the assay with Serratia marcescens S6 (with 102 and clavulanate). Moreover, the “MIC of antibiotic at fixed inhibitor concentration of 4 mg/L” value in assay [4] (with 102 and clavulanate) came out at 0.25 µg/mL.
Regarding `NC(=O)c1cccc(NC(=O)N2CC[C@@H]3[C@H]2C(=O)N3S(=O)(=O)[O-])c1.[Na+]` [Compound 305], the “MIC of antibiotic at fixed inhibitor concentration (4 mg/L)” value in the assay with Acinetobacter sp. J2 was greater than 32 µg/mL; in assay [1], greater than 32 µg/mL; in assay [2], 4 µg/mL; with Enterobacter cloacae P99, 4 µg/mL; in assay [3] it was 4 µg/mL; in the assay on Serratia marcescens S6, 0.25 µg/mL. For the same compound, in assay [4], the “MIC of antibiotic at fixed inhibitor concentration (4 mg/L)” value turned out to be 0.25 µg/mL.
With `C[C@H]1[C@H](NC(=O)/C(=N\OCc2cc(=O)c(O)cn2C)c2csc(N)n2)C(=O)N1S(=O)(=O)O` [Compound 6, (3S,4S)-3-{(2Z)-2-(2-amino(1,3-thiazol-4-yl))-3-[(5-hydroxy-1-methyl-4-oxo(2-hydropyridyl))methoxy]-3-azaprop-2-enoylamino}-4-methyl-2-oxoazetidinesulfonic acid], the MIC of antibiotic with Acinetobacter sp. J2 is greater than 32 µg/mL; in assay [1], greater than 32 µg/mL; in assay [2] it was greater than 32 µg/mL; with Enterobacter cloacae P99, 16 µg/mL; in assay [3], greater than 32 µg/mL; with Serratia marcescens S6, 4 µg/mL. For the same compound, the MIC of antibiotic in assay [4] was determined as 8 µg/mL. For the same compound, the “MIC of antibiotic at fixed inhibitor concentration of 4 mg/L” value in the assay with Acinetobacter sp. J2 (with 102 and clavulanate) was greater than 32 µg/mL; with Acinetobacter sp. J2 (with 206 and clavulanate) it was 32 µg/mL; in the assay on Acinetobacter sp. J2 (with 315 and clavulanate), greater than 32 µg/mL; in assay [1] (with 102 and clavulanate), greater than 32 µg/mL; in assay [1] (with 206 and clavulanate), greater than 32 µg/mL; in assay [1] (with 315 and clavulanate) it was greater than 32 µg/mL. The “MIC of antibiotic at fixed inhibitor concentration of 4 mg/L” value was greater than 32 µg/mL in assay [2] (with 102 and clavulanate); greater than 32 µg/mL in assay [2] (with 206 and clavulanate); greater than 32 µg/mL in assay [2] (with 315 and clavulanate); 8 µg/mL in the assay with Enterobacter cloacae P99 (with 102 and clavulanate); 16 µg/mL with Enterobacter cloacae P99 (with 206 and clavulanate); 4 µg/mL in the assay on Enterobacter cloacae P99 (with 315 and clavulanate). The “MIC of antibiotic at fixed inhibitor concentration of 4 mg/L” value in assay [3] (with 102 and clavulanate) is less than 0.06 µg/mL; in assay [3] (with 206 and clavulanate) it was 0.5 µg/mL; in assay [3] (with 315 and clavulanate), 0.5 µg/mL; in the assay with Serratia marcescens S6 (with 102 and clavulanate), 0.5 µg/mL; in the assay with Serratia marcescens S6 (with 206 and clavulanate), 4 µg/mL; with Serratia marcescens S6 (with 315 and clavulanate) it was 4 µg/mL. Besides, the “MIC of antibiotic at fixed inhibitor concentration of 4 mg/L” value was 4 µg/mL in assay [4] (with 102 and clavulanate); 4 µg/mL in assay [4] (with 206 and clavulanate); 2 µg/mL in assay [4] (with 315 and clavulanate).
On to `NC(=O)OCC1C(NC(=O)C(=NOCc2cc(=O)c(O)cn2O)c2csc(N)n2)C(=O)N1OS(=O)(=O)O` (stereo not drawn) [Compound 25], for which the MIC of antibiotic was greater than 32 µg/mL in the assay on Acinetobacter sp. J2; greater than 32 µg/mL in assay [1]; 16 µg/mL in assay [2]; greater than 32 µg/mL in the assay with Enterobacter cloacae P99; greater than 32 µg/mL in assay [3]; 1 µg/mL in the assay on Serratia marcescens S6. Moreover, the MIC of antibiotic in assay [4] stood at 4 µg/mL. Besides, the “MIC of antibiotic at fixed inhibitor concentration of 4 mg/L” value in the assay on Acinetobacter sp. J2 (with 102 and clavulanate) was 16 µg/mL; in the assay on Acinetobacter sp. J2 (with 324 and clavulanate), greater than 32 µg/mL; in assay [1] (with 102 and clavulanate) it was 4 µg/mL; in assay [1] (with 324 and clavulanate), 8 µg/mL; in assay [2] (with 102 and clavulanate) it was 4 µg/mL; in assay [2] (with 324 and clavulanate) it was 8 µg/mL. For the same compound, the “MIC of antibiotic at fixed inhibitor concentration of 4 mg/L” value in the assay with Enterobacter cloacae P99 (with 102 and clavulanate) is 8 µg/mL; in the assay with Enterobacter cloacae P99 (with 324 and clavulanate), 4 µg/mL; in assay [3] (with 102 and clavulanate) it was 0.5 µg/mL; in assay [3] (with 324 and clavulanate), 0.5 µg/mL; with Serratia marcescens S6 (with 102 and clavulanate) it was 1 µg/mL; in the assay with Serratia marcescens S6 (with 324 and clavulanate) it was 1 µg/mL. Moreover, the “MIC of antibiotic at fixed inhibitor concentration of 4 mg/L” value was determined as 1 µg/mL in assay [4] (with 102 and clavulanate); 1 µg/mL in assay [4] (with 324 and clavulanate).
As for `Nc1cc[n+](CC(=O)N2CC[C@@H]3[C@H]2C(=O)N3S(=O)(=O)[O-])cc1` [Compound 103, (1S,5R)-2-[2-(4-aminopyridinium)acetyl]-7-oxo-2,6-diazabicyclo[3.2.0]heptane-6-sulfonate, inner salt], the “MIC of antibiotic at fixed inhibitor concentration (4 mg/L)” value in the assay on Acinetobacter sp. J2 was found to be 8 µg/mL; in assay [1], 8 µg/mL; in assay [2], 4 µg/mL; with Enterobacter cloacae P99, 32 µg/mL; in assay [3], 0.5 µg/mL; in the assay with Serratia marcescens S6, 0.25 µg/mL. Moreover, the “MIC of antibiotic at fixed inhibitor concentration (4 mg/L)” value in assay [4] was found to be 0.125 µg/mL.
